We go through two compounds from PMC5386545, “Madecassic acid, the contributor to the anti-colitis effect of madecassoside, enhances the shift of Th17 toward Treg cells via the PPARγ/AMPK/ACC1 pathway” (Cell Death & Disease, 2017).

Experiment [1] addresses T1, PPARγ (Homo sapiens, UniProt P37231).
T1 construct: gene PPARG; GST-fused human PPARγ-LBD
T1 sequence (P37231 231-505 limits assumed): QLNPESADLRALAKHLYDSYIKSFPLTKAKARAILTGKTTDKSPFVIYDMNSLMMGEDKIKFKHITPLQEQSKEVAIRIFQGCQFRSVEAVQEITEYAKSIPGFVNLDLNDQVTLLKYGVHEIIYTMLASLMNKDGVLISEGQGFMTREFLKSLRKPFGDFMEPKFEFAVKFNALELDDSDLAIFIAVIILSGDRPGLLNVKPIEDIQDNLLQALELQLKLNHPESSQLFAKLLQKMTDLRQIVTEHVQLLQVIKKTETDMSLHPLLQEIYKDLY
Description: LanthaScreen TR-FRET competitive binding assay. (Time-resolved FRET reads energy transfer from a long-lived donor to a nearby acceptor.)

In experiment [2] the target is T1, PPARγ. Description: LanthaScreen TR-FRET competitive binding assay (reference agonist; value not given).

On to `C[C@H]1[C@H](C)CC[C@]2(C(=O)O)CC[C@]3(C)C(=CC[C@@H]4[C@@]5(C)C[C@@H](O)[C@H](O)[C@@](C)(CO)[C@@H]5[C@H](O)C[C@]43C)[C@H]12` [madecassic acid], for which the Ki (as a rule, a dissociation constant, usually derived from enzyme kinetics or from competition with a known ligand) on PPARγ [1] was 1610 nM. Take `CN(CCOc1ccc(CC2SC(=O)NC2=O)cc1)c1ccccn1` (centres unmarked) [rosiglitazone]: the “LanthaScreen TR-FRET competitive binding assay (reference agonist); no value prin” value at PPARγ [2] was “Madecassic acid or rosiglitazone was cultured with GST-fused human PPARγ-LBD, terbium-labeled anti-GST antibody and a fluorescently labeled PPAR ligand”.
